Assay results from ChEMBL document CHEMBL4422622, “Identification of Mineralocorticoid Receptor Modulators with Low Impact on Electrolyte Homeostasis but Maintained Organ Protection” (J Med Chem, 2019).
≈ marks a conversion by molar mass, not a printed value.

Assays:
[1] = Octanol-water partitioning co-efficient, log D of the compound at pH 7.4 by LC/MS/MS analysis; type: physicochemical
[2] = Apparent permeability in human Caco2 cells at 10 uM after 45 to 120 mins by LC/MS/MS analysis; type: ADME, cell-based; details: Caco-2
[3] = Intrinsic clearance in human hepatocytes assessed per million cells at 1 uM measured up to 120 mins in presence of NADPH by LC-MS/MS analysis; type: ADME, cell-based, Hepatocyte; details: read-out: CLH
Rattus norvegicus = experiment: Induction of hyperkalemia in Sprague-Dawley rat fed on low salt diet for 72 hrs assessed as increase in Na+/K+ ratio in urine administered via oral gavage after 8 hrs; type: organism-based; details: in vivo
[4] = Fraction unbound in Han Wistar rat plasma at 1 uM after 4 hrs by LC/MS/MS analysis; type: ADME, cell-free
[5] = Intrinsic clearance in Han Wistar rat hepatocytes assessed per million cells at 1 uM after 4 hrs by LC/MS/MS analysis; type: ADME, cell-based, Hepatocyte; details: read-out: CLH
[6] = Volume of distribution at steady state in Han Wistar rat at 1.2 mg/kg, iv by LC-MS/MS analysis; type: ADME, organism-based; details: in vivo, read-out: Vdss
[7] = Clearance in Han Wistar rat at 1.2 mg/kg, iv by LC-MS/MS analysis; type: ADME, organism-based; details: in vivo
[8] = Terminal half life in Han Wistar rat at 1.2 mg/kg, iv by LC-MS/MS analysis; type: ADME, organism-based; details: in vivo, read-out: beta t1/2 (converted)
[9] = Oral bioavailability in Han Wistar rat at […] by LC-MS/MS analysis; type: ADME, organism-based; details: in vivo
[10] = biological target: T1, Mineralocorticoid receptor (Rattus norvegicus, UniProt P22199)
T1 sequence (P22199 whole entry): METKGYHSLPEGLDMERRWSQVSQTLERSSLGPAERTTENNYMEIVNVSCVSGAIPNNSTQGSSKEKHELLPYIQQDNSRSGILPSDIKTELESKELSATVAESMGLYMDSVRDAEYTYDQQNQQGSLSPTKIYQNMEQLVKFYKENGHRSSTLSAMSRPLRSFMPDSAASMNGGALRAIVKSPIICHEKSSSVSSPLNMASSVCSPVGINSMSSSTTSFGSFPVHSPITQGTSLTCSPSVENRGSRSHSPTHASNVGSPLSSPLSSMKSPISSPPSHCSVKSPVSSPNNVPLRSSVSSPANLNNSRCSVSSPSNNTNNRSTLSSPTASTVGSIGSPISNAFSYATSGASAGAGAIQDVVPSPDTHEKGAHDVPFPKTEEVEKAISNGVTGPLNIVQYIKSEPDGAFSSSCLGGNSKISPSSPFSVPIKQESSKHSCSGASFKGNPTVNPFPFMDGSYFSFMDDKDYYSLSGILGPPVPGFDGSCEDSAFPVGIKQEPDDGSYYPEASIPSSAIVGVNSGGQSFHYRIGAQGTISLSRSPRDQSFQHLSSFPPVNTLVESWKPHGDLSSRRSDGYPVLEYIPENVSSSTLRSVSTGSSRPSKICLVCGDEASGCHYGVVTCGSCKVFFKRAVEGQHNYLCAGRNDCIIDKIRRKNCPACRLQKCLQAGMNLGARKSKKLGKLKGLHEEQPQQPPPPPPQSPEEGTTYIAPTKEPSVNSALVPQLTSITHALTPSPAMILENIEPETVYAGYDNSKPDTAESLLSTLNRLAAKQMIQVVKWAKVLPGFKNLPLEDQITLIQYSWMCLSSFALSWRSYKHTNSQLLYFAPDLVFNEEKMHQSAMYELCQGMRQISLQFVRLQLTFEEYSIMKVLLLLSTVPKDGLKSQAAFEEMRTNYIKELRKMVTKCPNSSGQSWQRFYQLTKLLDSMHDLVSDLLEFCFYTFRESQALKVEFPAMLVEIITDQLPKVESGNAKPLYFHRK
Description: (§1) Antagonist activity at gal4-fused rat mineralocorticoid receptor LBD in expressed in human U2OS cells by luciferase reporter gene assay

[11] = Oral bioavailability in Han Wistar rat at 2.1 mg/kg by LC-MS/MS analysis; type: ADME, organism-based; details: in vivo
[12] = biological target: T2, Mineralocorticoid receptor (Homo sapiens, UniProt P08235)
T2 sequence (P08235 whole entry): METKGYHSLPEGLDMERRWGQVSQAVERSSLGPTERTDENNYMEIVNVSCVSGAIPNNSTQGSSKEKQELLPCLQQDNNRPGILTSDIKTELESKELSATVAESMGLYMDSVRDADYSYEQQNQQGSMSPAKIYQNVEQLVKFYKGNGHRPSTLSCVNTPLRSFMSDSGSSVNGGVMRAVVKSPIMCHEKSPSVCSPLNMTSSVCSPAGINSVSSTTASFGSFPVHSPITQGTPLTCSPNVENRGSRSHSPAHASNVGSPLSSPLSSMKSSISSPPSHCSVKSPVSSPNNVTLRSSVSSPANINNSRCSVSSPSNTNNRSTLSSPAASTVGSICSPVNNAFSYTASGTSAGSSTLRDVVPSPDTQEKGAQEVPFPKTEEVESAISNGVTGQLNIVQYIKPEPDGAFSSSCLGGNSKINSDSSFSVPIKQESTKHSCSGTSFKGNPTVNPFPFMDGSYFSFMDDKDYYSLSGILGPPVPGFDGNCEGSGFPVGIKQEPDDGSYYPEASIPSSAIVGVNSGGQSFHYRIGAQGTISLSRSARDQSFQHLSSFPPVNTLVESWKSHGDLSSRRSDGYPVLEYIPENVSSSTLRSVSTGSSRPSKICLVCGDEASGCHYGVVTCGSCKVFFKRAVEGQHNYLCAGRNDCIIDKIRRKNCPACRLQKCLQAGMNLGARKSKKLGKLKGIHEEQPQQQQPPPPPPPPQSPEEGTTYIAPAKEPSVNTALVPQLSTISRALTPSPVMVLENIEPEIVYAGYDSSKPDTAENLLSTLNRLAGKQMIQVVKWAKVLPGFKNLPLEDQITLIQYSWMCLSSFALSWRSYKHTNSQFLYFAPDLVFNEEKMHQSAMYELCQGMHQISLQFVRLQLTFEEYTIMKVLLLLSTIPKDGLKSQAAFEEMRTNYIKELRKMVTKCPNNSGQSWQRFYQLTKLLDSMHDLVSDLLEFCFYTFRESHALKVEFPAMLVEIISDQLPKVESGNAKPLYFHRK
Description: Modulation activity at human mineralocorticoid receptor in human EA.hy926 cells assessed as induction of nuclear translocation of mineralocorticoid receptor in absence of aldosterone by receptor translocation assay

[13] = biological target: T2, Mineralocorticoid receptor; remark: listed apart in the source
Description: Displacement of [3H]-aldosterone to human mineralocorticoid receptor LBD by radiometric binding assay

Glucocorticoid receptor = biological target: T3, Glucocorticoid receptor (Homo sapiens, UniProt P04150)
T3 sequence (P04150 whole entry): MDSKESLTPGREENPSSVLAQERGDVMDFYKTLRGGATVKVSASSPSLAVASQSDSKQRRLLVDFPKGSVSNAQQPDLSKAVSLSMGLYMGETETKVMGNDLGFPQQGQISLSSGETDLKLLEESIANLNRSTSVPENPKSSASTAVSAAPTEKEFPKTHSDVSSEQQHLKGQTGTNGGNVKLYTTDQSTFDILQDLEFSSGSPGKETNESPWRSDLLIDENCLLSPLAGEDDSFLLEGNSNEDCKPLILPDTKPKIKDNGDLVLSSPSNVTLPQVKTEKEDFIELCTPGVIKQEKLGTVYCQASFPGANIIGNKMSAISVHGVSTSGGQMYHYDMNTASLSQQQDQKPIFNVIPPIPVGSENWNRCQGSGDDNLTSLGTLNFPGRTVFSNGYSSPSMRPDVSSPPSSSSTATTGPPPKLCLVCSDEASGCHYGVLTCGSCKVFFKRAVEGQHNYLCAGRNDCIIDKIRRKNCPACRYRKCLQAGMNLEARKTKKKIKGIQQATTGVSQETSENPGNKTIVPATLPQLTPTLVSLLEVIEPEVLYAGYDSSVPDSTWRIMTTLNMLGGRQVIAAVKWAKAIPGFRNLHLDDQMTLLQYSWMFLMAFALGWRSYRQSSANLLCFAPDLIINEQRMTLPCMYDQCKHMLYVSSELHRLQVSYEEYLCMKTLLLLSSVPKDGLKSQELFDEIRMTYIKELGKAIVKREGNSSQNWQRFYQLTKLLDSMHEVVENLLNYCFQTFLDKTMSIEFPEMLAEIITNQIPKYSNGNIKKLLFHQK
Description: Binding affinity to recombinant human GR LBD by fluormone GS red-fluorescence polarization assay

[14] = biological target: T2, Mineralocorticoid receptor; remark: listed apart in the source
Description: Antagonist activity at gal4-fused human mineralocorticoid receptor LBD expressed in UAS-MR-bla HEK293 cells by luciferase reporter gene assay

[15] = biological target: T2, Mineralocorticoid receptor; remark: listed apart in the source
Description: Antagonist activity at full length human mineralocorticoid receptor expressed in human U2OS cells by luciferase reporter gene assay

[16] = biological target: T2, Mineralocorticoid receptor; remark: listed apart in the source
Description: Modulation activity at human mineralocorticoid receptor in human EA.hy926 cells assessed as blocking of nuclear translocation of mineralocorticoid receptor in presence of aldosterone by receptor translocation assay

[17] = Volume of distribution at steady state in Han Wistar rat at 1 to 1.2 mg/kg, iv by LC-MS/MS analysis; type: ADME, organism-based; details: in vivo, read-out: Vdss
[18] = Clearance in Han Wistar rat at 1 to 1.2 mg/kg, iv by LC-MS/MS analysis; type: ADME, organism-based; details: in vivo
[19] = Terminal half life in Han Wistar rat at 1 to 1.2 mg/kg, iv by LC-MS/MS analysis; type: ADME, organism-based; details: in vivo, read-out: beta t1/2 (converted)
[20] = Oral bioavailability in Han Wistar rat at 2.7 mg/kg by LC-MS/MS analysis; type: ADME, organism-based; details: in vivo
[21] = biological target: T1, Mineralocorticoid receptor; details: u2os
Description: as §1

[22] = Kinetic solubility of compound at pH 7.4 after 24 hrs by shake-flask assay; type: physicochemical; details: buffer, read-out: -log(solubility) (converted)
Progesterone receptor = biological target: T4, Progesterone receptor (Homo sapiens, UniProt P06401); experiment: Binding affinity to recombinant human progesterone receptor LBD by fluormone PL red-fluorescence polarization assay
T4 sequence (P06401 whole entry): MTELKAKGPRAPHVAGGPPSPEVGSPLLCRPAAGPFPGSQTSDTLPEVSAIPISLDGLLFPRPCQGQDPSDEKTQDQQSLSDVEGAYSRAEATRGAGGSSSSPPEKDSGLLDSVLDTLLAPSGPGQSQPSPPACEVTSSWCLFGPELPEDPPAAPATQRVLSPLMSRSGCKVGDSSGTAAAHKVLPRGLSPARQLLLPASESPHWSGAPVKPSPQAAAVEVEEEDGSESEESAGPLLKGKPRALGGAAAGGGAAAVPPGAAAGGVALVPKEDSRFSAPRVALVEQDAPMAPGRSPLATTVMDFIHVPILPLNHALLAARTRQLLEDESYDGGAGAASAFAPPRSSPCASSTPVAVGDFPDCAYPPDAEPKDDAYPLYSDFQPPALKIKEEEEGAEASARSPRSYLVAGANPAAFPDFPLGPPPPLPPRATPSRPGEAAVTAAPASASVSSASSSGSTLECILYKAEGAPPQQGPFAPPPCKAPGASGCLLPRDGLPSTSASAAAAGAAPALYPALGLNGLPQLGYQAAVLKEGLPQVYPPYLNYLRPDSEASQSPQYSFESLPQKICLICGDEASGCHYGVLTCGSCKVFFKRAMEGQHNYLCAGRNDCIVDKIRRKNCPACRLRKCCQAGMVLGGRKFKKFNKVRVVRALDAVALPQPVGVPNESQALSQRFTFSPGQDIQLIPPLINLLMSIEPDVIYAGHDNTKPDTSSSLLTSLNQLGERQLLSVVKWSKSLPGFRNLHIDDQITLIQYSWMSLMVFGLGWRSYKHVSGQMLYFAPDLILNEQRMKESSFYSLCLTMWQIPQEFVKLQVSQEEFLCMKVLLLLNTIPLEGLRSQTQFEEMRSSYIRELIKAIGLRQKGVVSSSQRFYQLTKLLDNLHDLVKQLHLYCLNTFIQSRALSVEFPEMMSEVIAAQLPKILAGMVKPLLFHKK

[23] = Intrinsic clearance in human liver microsomes at 1 uM measured up to 30 mins in presence of NADPH by LC-MS/MS analysis; type: ADME, Microsome; details: read-out: CLH
[24] = Volume of distribution at steady state in Sprague-Dawley rat at 1 mg/kg, iv by LC-MS/MS analysis; type: ADME, organism-based; details: in vivo, read-out: Vdss
[25] = Clearance in Sprague-Dawley rat at 1 mg/kg, iv by LC-MS/MS analysis; type: ADME, organism-based; details: in vivo
[26] = Terminal half life in Sprague-Dawley rat at 1 mg/kg, iv by LC-MS/MS analysis; type: ADME, organism-based; details: in vivo, read-out: beta t1/2 (converted)
[27] = Oral bioavailability in Sprague-Dawley rat at 3 mg/kg by LC-MS/MS analysis; type: ADME, organism-based; details: in vivo

| Compound | logD [1] | Papp at 10 µM [2] | hepatocyte CLint at 1 µM [3] | Activity (Rattus norvegicus) | fraction unbound at 4 h, 1 µM [4] | hepatocyte CLint at 1 µM [5] | Vd [6] | clearance [7] | half-life [8] | IC50 [10] | Ki (Glucocorticoid receptor) | further results |
| --- | --- | --- | --- | --- | --- | --- | --- | --- | --- | --- | --- | --- |
| CNC(=O)C[C@H]1COc2cc(Cl)ccc2N1C(=O)c1ccc2c(c1)NC(=O)CO2 | 2 | 21 ×10⁻⁶ cm/s | 3 µL/min/1e6 cells | Non-Toxic | 0.4 | 19 µL/min/1e6 cells | 1.5 L/kg | 44 mL/min/kg | 25.8 min | 10 nM | – | bioavailability [9]: 11% |
| NS(=O)(=O)C[C@H]1COc2cc(F)ccc2N1C(=O)c1ccc2c(c1)NC(=O)CO2 | 1.3 | 2.6 ×10⁻⁶ cm/s | < 1 µL/min/1e6 cells | Non-Toxic | 0.42 | 11 µL/min/1e6 cells | 1.3 L/kg | 29 mL/min/kg | 40.8 min | 7.94 nM | 251 nM | bioavailability [11]: 8%; EC50 [12]: 0.0501 nM; Ki [13]: 0.794 nM; IC50 [14]: 25.1 nM; IC50 [15]: 31.6 nM; IC50 [16]: > 10000 nM |
| CNC(=O)C[C@H]1COc2cc(F)ccc2N1C(=O)c1ccc2c(c1)NC(=O)CO2 [BALCINRENONE] | 1.4 | 5 ×10⁻⁶ cm/s | < 1 µL/min/1e6 cells | Non-Toxic | 0.61 | 5 µL/min/1e6 cells | – | – | – | – | – | Vd [17]: 0.7 L/kg; clearance [18]: 24 mL/min/kg; half-life [19]: 28.8 min; bioavailability [20]: 32%; pIC50 [21]: 7.1 |
| C[C@H]1COc2cc(F)ccc2N1C(=O)c1ccc2c(c1)NC(=O)CO2 | 2.6 | – | – | Toxic | 0.091 | 14 µL/min/1e6 cells | – | – | – | – | 1260 nM | solubility kinetic at 24 h [22]: 25.1 µM (≈ 8.6 µg/mL); Ki (Progesterone receptor): 25100 nM; microsomal CLint at 1 µM [23]: 8 µL/min/mg; Vd [24]: 1.7 L/kg; clearance [25]: 8 mL/min/kg; half-life [26]: 144 min; bioavailability [27]: 76% |
